Target: T1, human MPO (Homo sapiens, UniProt P05164)
T1 sequence (P05164 49-745): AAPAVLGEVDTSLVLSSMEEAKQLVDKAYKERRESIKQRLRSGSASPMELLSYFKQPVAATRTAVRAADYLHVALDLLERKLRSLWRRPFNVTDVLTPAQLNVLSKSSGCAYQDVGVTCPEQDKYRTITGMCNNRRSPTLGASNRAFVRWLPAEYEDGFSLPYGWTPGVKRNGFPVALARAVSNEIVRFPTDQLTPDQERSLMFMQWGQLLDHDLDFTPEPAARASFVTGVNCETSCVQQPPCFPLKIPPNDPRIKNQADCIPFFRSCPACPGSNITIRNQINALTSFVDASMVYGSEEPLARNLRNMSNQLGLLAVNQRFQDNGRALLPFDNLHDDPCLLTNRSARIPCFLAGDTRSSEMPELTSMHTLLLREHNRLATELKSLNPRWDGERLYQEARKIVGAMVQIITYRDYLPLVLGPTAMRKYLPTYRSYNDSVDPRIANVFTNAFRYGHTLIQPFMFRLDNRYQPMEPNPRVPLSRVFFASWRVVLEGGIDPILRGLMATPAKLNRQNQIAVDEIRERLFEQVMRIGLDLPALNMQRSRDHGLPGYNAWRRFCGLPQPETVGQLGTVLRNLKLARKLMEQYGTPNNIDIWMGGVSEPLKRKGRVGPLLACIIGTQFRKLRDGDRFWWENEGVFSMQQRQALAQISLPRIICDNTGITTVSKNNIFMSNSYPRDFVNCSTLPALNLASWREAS
Experiment: MPO inhibition activity: inhibition of halogenation of tyrosine residues of biotin-labeled BSA (ELISA with 3A5 antibody)
Assay type: biochemical
Conditions: sample prepared to 5 mM, 10 μl in about 110 μl reaction; 30 minutes at 37° C.; absorbancy 450 nm/550 nm
Method: The MPO inhibition activities of the isolated MGGD and its aglycon MSYR were measured by evaluating inhibition of the halogenation of the tyrosine residues of a biotin-labeled protein (bovine serum albumin). It is thus possible to measure either inhibition of the MPO enzyme itself or the ability to extinguish or capture hypobromous acid (HOBr) and other active species produced by the enzyme.
The necessary solutions and the like for the reaction were prepared as follows.
(2) Xanthine oxidase (XOD) (Sigma X4500-25UN) diluted 100× with water.
(4) Biotin-BSA (Sigma-A6043-10MG) dissolved to 1 mg/ml in 0.1 M phosphate buffer with 200 μM NaBr and 200 mM NaCl added in advance, then freeze dried for storage, and diluted to 0.4 mg/ml before use.
(5) Sample prepared to 5 mM.
(6) Reduced glutathione (GSH) (Sigma G-6529) as a positive control.
(7) L-methionine, dissolved in water to 10 mM. […]
50 μl of a 10 μg/ml concentration 3A5 antibody (Nikken Seil) recognizing dihalogenated tyrosines was coated as a primary antibody on each microplate, and left standing overnight at 4° C. […] This was then left standing again for 45 minutes at 37° C. and washed, after which 100 μl of a TMB (3,3′-5,5′-tetramethylbentidine) coloring reagent (A liquid/B liquid=1/1) was added, and absorbancy was measured at 450 nm/550 nm for about 10 minutes with a microplate reader.

## COC(=O)c1cc(OC)c(O[C@@H]2O[C@H](CO[C@@H]3O[C@H](CO)[C@@H](O)[C@H](O)[C@H]3O)[C@@H](O)[C@H](O)[C@H]2O)c(OC)c1 [MGGD, methyl-4-O-[β-D-glucopyranosyl-(1→6)-β-D-glucopyranosyl]-3,5-dimethoxybenzoate]
  MPO enzyme inhibition activity (halogenated tyrosine production vs control with no added antioxidant): exhibited MPO enzyme inhibition activity
